Experimental data: ChEMBL document CHEMBL1201862, “PubChem BioAssay data set” (2004)
Calls of active or inactive are those of the source.

Assays:
[1] = biological target: T1, Methionyl-tRNA synthetase, putative (Trypanosoma brucei brucei, UniProt Q38C91); type: functional, Trypanosoma brucei brucei strain 927/4 GUTat10.1
T1 sequence (Q38C91 whole entry): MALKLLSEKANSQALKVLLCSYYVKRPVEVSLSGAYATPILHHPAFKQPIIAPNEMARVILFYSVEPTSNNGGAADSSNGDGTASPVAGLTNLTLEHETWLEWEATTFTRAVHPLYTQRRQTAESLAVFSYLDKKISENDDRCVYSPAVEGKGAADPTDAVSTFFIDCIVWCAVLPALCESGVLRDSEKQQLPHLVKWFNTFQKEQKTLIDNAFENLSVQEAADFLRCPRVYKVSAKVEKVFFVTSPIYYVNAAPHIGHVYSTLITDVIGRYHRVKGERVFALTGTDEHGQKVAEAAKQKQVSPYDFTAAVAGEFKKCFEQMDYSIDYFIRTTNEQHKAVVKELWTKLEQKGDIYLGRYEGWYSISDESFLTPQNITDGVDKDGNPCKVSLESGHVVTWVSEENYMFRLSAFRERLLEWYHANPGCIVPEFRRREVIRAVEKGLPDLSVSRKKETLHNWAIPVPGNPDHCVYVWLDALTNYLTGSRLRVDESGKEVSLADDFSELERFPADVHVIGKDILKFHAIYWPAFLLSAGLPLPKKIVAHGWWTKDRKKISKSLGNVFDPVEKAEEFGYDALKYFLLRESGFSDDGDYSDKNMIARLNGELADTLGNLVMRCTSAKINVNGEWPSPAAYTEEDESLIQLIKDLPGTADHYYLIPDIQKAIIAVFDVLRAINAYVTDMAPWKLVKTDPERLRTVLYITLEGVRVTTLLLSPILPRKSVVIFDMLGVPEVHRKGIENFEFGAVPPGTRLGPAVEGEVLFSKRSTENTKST

[2] = inhibitors of intracellular T. cruzi replication, confirmation, NIH3T3 host cells, beta-gal luminescence (AID 2044); type: functional, cell-based;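 also: intracellular parasites grown in NIH/3T3 mouse fibroblasts as host cells; luminescent beta-galactosidase reporter signal from transgenic T. cruzi replicating inside host cells; inhibitors lower the luminescence signal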
[3] = Counterscreen for inhibitors of Trypanosoma brucei methionyl tRNA synthetase (MetRS): Luminescence-based cell-based high throughput dose response assay to identify compounds that are cytotoxic to Jurkat human T lymphocyte cells.; type: functional
[4] = biological target: T1, Methionyl-tRNA synthetase, putative; type: functional, Trypanosoma brucei brucei strain 927/4 GUTat10.1; remark: listed apart in the source
[5] = cytotoxicity toward NIH3T3 fibroblasts, dose response, counter-screen, cell-based, ATP luminescence, mouse fibroblasts (AID 2010); type: functional;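 also: cells exposed to compound for about 90 hours before reading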
[6] = AlphaScreen signal interference compounds, dose response, artefact control for ARNT-TACC3 interaction inhibitor project, biochemical, luminescence, cherry-pick (AID 651705); type: functional;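 also: AlphaScreen bead proximity signal that flags compounds interfering with the detection technology; potency reflects signal decrease which marks the compound as an assay artifact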
[7] = biological target: T2, Low molecular weight phosphotyrosine protein phosphatase (Homo sapiens, UniProt P24666); type: functional; settings: read-out: IC50_Mean
T2 sequence (P24666 whole entry): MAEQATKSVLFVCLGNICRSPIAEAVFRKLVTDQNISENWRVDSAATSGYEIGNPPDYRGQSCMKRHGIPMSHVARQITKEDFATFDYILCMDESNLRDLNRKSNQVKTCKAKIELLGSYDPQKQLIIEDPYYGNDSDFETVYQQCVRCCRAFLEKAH

[8] = biological target: T2, Low molecular weight phosphotyrosine protein phosphatase; type: functional; settings: read-out: IC50_Mean; remark: listed apart in the source
[9] = biological target: T3, Small ubiquitin-related modifier 1 (Homo sapiens, UniProt P63165); assay: inhibitors of SUMO1 peptide binding, dose response, biochemical, fluorescence polarization, uHTS hits (AID 624382); type: functional; settings: read-out: IC50_Mean
[10] = biological target: Arf-GAP with SH3 domain, ANK repeat and PH domain-containing protein 1 (Homo sapiens, UniProt Q9ULH1); type: functional;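 also: biochemical fluorescence polarization dose–response screen measuring inhibition of ASAP1; ASAP1 GAP domain stimulating GTP hydrolysis by truncated human ARF1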
[11] = biological target: T3, Small ubiquitin-related modifier 1; assay: inhibitors of SUMO1 partner interactions, dose response, biochemical, FRET (AID 624383); type: functional; settings: read-out: IC50_Mean
[12] = biological target: Tyrosine-protein phosphatase non-receptor type 5 (Homo sapiens, UniProt P54829); assay: STEP phosphatase inhibitors, confirmation, biochemical, fluorescence intensity, uHTS hits (AID 602372); type: functional; settings: read-out: IC50_Mean
[13] = biological target: Tyrosine-protein phosphatase non-receptor type 11 (Homo sapiens, UniProt Q06124); assay: SHP2 phosphatase inhibition, dose response, selectivity assay for STEP inhibitor project, biochemical (AID 602367); type: functional; settings: read-out: IC50_Mean
[14] = biological target: Dual specificity protein phosphatase 3 (Homo sapiens, UniProt P51452); assay: VHR phosphatase inhibition, dose response, selectivity assay for STEP inhibitor project, biochemical (AID 602374); type: functional; settings: read-out: IC50_Mean
Steroidogenic factor 1 = Steroidogenic factor 1 (Homo sapiens, UniProt Q13285); assay: Counterscreen for inverse agonists of the liver receptor homolog-1 (LRH-1; NR5A2): Luminescence-based cell-based high throughput dose response assay to identify inverse agonists of the Steroidogenic Factor 1 Nuclear Receptor (SF1; NR5A1).; type: functional
[15] = biological target: Nuclear receptor subfamily 5 group A member 2 (Homo sapiens, UniProt O00482); type: functional, cell-based;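 also: HEK293T cells transfected with LRH-1 and a StAR promoter luciferase reporter; potency for inhibitors that lower LRH-1 driven reporter light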
[16] = StAR promoter reporter inhibition counter-screen, dose response, counter-screen for LRH-1 inverse agonist project, cell-based, luminescence, luciferase reporter (AID 651969); type: functional
[17] = Fluorescence-based cell-based high throughput dose response assay for inhibitors of the interaction of nucleotide-binding oligomerization domain containing 2 (NOD2) and the receptor-interacting serine-threonine kinase 2 (RIPK2).; type: functional; settings: Homo sapiens
Hexokinase = biological target: T4, Hexokinase (Trypanosoma brucei, UniProt Q38C41); assay: Confirmation assay for inhibitors of Trypanosoma brucei hexokinase 1-Analogue-first series. [Related pubchem assays (depositor defined):AID1430, AID1632, AID2516, AID2560, AID2579, AID2600, AID449725, AID492951]; type: functional
T4 sequence (Q38C41 whole entry): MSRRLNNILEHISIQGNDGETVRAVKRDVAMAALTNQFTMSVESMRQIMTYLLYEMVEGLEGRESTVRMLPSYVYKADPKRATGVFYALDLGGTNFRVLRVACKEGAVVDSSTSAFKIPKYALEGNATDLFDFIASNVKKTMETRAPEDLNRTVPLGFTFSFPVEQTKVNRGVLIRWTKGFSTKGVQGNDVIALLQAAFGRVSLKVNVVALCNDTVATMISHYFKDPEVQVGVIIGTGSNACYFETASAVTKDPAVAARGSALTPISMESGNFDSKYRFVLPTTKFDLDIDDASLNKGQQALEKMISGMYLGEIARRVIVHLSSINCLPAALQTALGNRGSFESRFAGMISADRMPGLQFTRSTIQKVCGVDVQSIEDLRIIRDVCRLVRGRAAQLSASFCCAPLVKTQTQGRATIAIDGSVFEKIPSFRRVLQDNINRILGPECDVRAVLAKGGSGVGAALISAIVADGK

[18] = biological target: Glucose-6-phosphate 1-dehydrogenase (Homo sapiens, UniProt P11413); assay: human G6PD enzyme inhibitors, dose response, selectivity assay for P. falciparum G6PD inhibitor project, biochemical, fluorescence (AID 504792); type: functional
Vero = assay: Vero cell toxicity, dose response, cytotoxicity control, plate reader, cherry-pick samples (AID 687020); type: functional, cell-based; settings: Chlorocebus sabaeus
Melanocortin receptor 4 = Melanocortin receptor 4 (Homo sapiens, UniProt P32245); type: functional, cell-based;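 also: Cell-based assay with luminescence read-out, confirmatory dose-response testing for agonist activity of biased ligands at MC4R; human U2OS cells with tagged receptor and beta-arrestin; potency of agonists that increase receptor coupling to beta-arrestin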
[19] = cytotoxicity in HMLE control line with eGFP shRNA, dose response, counter-screen for HMLE_sh_ECad selective toxicity project, cell-based, HMLE_sh_eGFP, luminescence (AID 463074); type: functional, Homo sapiens;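 also: HMLE human mammary epithelial cells expressing control shRNA against eGFP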
[20] = Luminescence Cell-Based Dose Retest to Confirm Inhibitors of Cancer Stem Cells. [Related pubchem assays (depositor defined):AID2717, AID2721]; type: functional; settings: Homo sapiens
[21] = biological target: Photoreceptor-specific nuclear receptor (Homo sapiens, UniProt Q9Y5X4); type: functional, cell-based;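 also: CHO-S cells with Gal4-NCOR and VP16-NR2E3 two-hybrid luciferase reporter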
Genome polyprotein = Genome polyprotein (dengue virus type 2, UniProt P29990); assay: Dengue-2 NS5 methyltransferase inhibitors, primary screen, biochemical, confirmation dose response (AID 588689); type: functional
[22] = biological target: T5, Rac GTPase-activating protein 1 (Homo sapiens, UniProt Q9H0H5); assay: MgcRacGAP GTPase-activating activity inhibitors, confirmation, biochemical, ADP Hunter fluorescence, primary and confirmatory (AID 624330); type: functional
T5 sequence (Q9H0H5 whole entry): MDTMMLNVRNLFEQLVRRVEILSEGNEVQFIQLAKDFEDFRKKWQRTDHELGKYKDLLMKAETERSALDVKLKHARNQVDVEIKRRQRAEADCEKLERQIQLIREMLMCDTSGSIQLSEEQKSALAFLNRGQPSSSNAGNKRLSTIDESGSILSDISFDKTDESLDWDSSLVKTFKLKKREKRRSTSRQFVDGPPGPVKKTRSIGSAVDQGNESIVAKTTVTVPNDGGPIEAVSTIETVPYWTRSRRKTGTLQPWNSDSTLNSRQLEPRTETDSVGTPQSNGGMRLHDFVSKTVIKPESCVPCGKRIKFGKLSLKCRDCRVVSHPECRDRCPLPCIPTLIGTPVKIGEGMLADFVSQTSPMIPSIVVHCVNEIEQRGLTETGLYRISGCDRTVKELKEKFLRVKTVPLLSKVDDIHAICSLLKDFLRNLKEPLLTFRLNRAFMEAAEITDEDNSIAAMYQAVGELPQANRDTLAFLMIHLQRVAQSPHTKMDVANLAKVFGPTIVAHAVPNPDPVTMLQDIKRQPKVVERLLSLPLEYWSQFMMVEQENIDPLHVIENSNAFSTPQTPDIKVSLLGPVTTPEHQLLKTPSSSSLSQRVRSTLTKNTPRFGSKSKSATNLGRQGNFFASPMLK

[23] = biological target: Aryl hydrocarbon receptor (Homo sapiens, UniProt P35869); settings: Potency;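 also: confirmatory quantitative high-throughput screen measuring activation of the AhR signaling pathway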
Sequence of Aryl hydrocarbon receptor (P35869 whole entry): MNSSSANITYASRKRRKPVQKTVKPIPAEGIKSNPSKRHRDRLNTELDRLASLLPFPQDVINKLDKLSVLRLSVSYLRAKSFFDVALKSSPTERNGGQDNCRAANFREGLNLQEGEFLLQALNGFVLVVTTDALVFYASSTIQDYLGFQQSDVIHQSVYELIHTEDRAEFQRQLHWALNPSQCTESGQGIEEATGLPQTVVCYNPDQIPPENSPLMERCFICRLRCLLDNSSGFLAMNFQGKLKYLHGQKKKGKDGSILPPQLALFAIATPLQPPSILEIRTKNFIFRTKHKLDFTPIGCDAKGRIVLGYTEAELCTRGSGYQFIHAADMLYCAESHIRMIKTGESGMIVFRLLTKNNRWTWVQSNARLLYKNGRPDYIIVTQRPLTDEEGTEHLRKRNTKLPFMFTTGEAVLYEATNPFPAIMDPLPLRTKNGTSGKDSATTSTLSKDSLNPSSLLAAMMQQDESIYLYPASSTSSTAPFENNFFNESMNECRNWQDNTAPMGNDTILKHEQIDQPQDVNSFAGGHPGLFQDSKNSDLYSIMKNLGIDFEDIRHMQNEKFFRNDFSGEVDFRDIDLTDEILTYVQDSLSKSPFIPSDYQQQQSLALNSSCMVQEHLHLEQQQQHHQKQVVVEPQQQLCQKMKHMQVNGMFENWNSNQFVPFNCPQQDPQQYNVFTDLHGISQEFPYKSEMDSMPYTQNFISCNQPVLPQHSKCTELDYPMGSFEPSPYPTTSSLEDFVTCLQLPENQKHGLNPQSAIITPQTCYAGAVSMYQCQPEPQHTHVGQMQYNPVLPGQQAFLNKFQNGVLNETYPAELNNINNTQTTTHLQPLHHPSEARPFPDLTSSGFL

T3 sequence (P63165 whole entry, the tested form may be a part): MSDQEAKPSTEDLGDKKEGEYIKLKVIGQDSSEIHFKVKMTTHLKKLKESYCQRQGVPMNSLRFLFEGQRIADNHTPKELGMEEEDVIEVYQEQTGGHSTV
Sequence of Steroidogenic factor 1 (Q13285 whole entry): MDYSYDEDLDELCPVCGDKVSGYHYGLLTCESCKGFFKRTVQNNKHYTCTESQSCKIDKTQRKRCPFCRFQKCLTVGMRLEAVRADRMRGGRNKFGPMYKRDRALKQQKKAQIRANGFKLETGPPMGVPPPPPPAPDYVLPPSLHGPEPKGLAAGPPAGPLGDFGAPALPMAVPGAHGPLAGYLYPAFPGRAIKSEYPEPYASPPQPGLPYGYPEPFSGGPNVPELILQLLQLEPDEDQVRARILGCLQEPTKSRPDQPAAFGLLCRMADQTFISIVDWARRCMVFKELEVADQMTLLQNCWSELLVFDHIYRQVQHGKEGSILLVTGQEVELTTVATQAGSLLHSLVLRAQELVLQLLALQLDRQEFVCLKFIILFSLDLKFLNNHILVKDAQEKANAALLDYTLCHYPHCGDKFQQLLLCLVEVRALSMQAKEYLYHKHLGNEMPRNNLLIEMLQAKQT
Sequence of Nuclear receptor subfamily 5 group A member 2 (O00482 whole entry): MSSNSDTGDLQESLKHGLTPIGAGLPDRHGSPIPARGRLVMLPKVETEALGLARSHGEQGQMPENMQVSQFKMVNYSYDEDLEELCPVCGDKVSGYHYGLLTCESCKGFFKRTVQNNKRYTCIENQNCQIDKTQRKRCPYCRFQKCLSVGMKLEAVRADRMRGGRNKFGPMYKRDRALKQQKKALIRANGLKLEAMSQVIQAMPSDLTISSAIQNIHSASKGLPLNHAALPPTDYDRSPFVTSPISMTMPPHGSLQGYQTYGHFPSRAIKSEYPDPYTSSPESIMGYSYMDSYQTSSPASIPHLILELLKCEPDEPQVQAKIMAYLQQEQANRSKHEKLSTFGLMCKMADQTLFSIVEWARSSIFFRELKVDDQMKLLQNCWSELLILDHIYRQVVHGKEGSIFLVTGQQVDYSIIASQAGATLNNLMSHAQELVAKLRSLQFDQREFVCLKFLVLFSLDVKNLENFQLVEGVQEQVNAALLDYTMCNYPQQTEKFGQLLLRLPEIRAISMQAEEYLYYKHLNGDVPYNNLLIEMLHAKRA
Sequence of Genome polyprotein (P29990 2492-3391 limits assumed): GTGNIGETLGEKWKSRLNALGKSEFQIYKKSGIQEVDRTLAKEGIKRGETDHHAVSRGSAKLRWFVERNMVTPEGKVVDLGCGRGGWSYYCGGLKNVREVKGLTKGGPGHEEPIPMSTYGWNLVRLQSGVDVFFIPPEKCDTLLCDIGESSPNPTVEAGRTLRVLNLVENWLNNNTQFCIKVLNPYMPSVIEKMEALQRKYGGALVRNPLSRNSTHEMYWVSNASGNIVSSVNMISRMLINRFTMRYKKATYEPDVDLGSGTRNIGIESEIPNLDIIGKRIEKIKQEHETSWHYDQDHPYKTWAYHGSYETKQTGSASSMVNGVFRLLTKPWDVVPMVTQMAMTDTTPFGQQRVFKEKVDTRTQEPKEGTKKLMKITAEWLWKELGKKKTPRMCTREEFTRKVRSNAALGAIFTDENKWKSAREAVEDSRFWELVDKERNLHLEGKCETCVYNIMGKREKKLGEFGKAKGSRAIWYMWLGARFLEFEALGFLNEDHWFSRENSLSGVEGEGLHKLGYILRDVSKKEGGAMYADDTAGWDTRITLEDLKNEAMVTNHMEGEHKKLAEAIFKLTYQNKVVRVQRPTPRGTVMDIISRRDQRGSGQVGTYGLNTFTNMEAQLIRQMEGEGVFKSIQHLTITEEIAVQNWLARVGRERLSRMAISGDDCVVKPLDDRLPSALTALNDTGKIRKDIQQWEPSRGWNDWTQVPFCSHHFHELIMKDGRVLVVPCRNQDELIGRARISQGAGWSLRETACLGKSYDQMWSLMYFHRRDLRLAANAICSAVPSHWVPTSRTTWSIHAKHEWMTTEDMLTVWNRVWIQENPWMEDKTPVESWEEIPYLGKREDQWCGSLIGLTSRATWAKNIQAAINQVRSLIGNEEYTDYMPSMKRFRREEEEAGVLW
Sequence of Tyrosine-protein phosphatase non-receptor type 11 (Q06124 whole entry): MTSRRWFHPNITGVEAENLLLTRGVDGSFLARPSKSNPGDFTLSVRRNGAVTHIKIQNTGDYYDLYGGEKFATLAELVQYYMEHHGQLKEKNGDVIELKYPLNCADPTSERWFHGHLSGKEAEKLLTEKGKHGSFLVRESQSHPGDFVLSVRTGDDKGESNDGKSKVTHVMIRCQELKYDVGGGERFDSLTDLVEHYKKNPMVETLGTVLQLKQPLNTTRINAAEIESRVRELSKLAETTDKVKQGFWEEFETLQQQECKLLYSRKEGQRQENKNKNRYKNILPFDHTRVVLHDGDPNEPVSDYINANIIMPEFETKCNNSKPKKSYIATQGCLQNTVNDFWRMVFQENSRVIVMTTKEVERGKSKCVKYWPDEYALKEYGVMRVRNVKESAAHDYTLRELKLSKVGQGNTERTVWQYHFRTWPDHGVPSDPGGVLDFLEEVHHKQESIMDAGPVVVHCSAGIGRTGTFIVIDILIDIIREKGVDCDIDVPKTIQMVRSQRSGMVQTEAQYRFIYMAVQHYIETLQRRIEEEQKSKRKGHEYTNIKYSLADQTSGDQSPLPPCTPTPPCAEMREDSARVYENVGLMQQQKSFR
Sequence of Glucose-6-phosphate 1-dehydrogenase (P11413 whole entry): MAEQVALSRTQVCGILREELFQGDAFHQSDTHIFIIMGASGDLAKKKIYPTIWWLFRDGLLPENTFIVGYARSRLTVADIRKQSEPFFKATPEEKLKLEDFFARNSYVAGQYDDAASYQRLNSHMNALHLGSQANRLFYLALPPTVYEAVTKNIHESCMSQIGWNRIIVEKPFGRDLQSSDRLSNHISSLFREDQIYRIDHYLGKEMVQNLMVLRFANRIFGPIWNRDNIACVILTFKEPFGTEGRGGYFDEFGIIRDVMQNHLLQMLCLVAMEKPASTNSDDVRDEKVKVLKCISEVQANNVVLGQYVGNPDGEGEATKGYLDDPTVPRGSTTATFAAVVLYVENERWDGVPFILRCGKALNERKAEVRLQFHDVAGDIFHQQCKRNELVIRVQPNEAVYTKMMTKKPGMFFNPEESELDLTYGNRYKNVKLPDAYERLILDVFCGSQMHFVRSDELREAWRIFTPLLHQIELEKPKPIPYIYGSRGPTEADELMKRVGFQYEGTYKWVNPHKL
Sequence of Photoreceptor-specific nuclear receptor (Q9Y5X4 whole entry, the tested form may be a part): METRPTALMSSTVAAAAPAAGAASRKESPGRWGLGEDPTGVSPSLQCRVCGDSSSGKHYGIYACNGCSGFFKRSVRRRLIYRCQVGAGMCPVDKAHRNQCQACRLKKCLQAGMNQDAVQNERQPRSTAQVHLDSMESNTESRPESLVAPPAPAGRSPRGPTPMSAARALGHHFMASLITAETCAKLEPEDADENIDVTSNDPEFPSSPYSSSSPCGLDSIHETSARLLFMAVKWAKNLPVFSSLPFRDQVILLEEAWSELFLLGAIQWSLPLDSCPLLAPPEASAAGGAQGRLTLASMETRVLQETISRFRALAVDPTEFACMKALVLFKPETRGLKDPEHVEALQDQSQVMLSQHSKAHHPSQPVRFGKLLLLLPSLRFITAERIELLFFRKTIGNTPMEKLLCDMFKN
Sequence of Melanocortin receptor 4 (P32245 whole entry): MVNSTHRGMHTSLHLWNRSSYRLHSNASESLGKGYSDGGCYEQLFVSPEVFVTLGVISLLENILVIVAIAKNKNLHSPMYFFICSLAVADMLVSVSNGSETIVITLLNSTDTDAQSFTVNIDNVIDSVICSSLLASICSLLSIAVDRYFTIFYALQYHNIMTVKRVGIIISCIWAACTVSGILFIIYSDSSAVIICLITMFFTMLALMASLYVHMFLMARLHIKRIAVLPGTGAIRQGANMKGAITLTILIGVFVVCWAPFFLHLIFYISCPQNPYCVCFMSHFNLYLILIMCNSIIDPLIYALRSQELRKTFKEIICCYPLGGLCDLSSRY
Sequence of Dual specificity protein phosphatase 3 (P51452 whole entry): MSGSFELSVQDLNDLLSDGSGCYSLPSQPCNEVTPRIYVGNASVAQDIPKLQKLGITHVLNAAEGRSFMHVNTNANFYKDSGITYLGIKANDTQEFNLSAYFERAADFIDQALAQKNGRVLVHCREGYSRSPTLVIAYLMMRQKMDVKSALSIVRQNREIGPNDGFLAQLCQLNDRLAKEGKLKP

Q: With `OC(COc1ccc2cc(Br)ccc2c1)Cn1ccnc1` (configuration not stated) as the compound, how does the EC50 (cells) read?
A: 0.126 µM (active)

Q: And the IC50 [1]?
A: 28.2 µM (inactive)

Q: What about the EC50 [2] of the same compound?
A: < 0.1 µM (active)

Q: What about the IC50 [3] of the same compound?
A: 83.3 µM (inactive)

Q: What about the IC50 [4] of the same compound?
A: 94.1 µM (inactive)

Q: What about the EC50 [5] of the same compound?
A: > 60 µM (not active)

Q: With `COc1ccc(NC(=O)CSc2c(C)nn(-c3nnc(C)c(O)n3)c2C)cc1` as the compound, how does the AC50 [6] read?
A: 133 µM (active)

Q: Which results are given for `Cc1cc(C)c2c(N)c(C(=O)c3ccc(Cl)c(Cl)c3)sc2n1`?
A: IC50 [7]: 14.2 µM (active); EC50 [2]: 0.166 µM (active); IC50 [8]: 4.5 µM (active); EC50 [5]: > 60 µM (not active)

Q: Which results are given for `COC(=O)c1cccc(Nc2nc(-c3ccncc3)nc3ccccc23)c1`?
A: IC50 [9]: > 66.6 µM (inactive); IC50 [10]: 10.5 µM (inactive); IC50 [11]: 4.11 µM (active)

Q: Which IC50 [12] does the source give for `Cc1ccccc1N1CCN(C(=S)c2ccc(-c3cccc([N+](=O)[O-])c3)o2)CC1` here?
A: 62.2 µM (inactive)

Q: What about the IC50 [13] of the same compound?
A: 11.3 µM (active)

Q: What about the IC50 [14] of the same compound?
A: 4.61 µM (active)

Q: Which results are given for `NC(=O)C1CCN(C(=O)COc2ccc3c4c(c(=O)oc3c2)CCCC4)CC1`?
A: IC50 (Steroidogenic factor 1): 4.4 µM (active); IC50 [15]: 3.98 µM (active); IC50 [16]: 35.9 µM (inactive)

Q: What does the source list for `O=C(Cn1sc2ccccc2c1=O)Nc1ccc(Cl)cc1`?
A: IC50 [17]: 7.04 µM (active); IC50 (Hexokinase): 12.9 µM (active); IC50 [18]: 12.5 µM (active)

Q: Which AC50 (Vero) does the source give for `O=C(c1cccc(Cl)c1)N1CCC2(CC1)NCCc1[nH]cnc12` here?
A: 34 µM (active)

Q: Which EC50 (Melanocortin receptor 4) does the source give for `COc1cc(/C=C2\Oc3ccc(C#Cc4ccc(O)cc4)cc3C2=O)cc(OC)c1` here?
A: > 89.2 µM (inactive)

Q: What about the AC50 [19] of the same compound?
A: 29.7 µM (active)

Q: And the AC50 [20]?
A: 1.41 µM (active)

Q: With `Cc1nn(CC(=O)Nc2ccc3c(c2)OCCO3)c(C)c1[N+](=O)[O-]` as the compound, how does the IC50 (Steroidogenic factor 1) read?
A: 3.1 µM (active)

Q: And the IC50 [15]?
A: 14.3 µM (inactive)

Q: What about the IC50 [16] of the same compound?
A: 35.9 µM (inactive)

Q: With `COc1ccc([C@@H]2C[C@H]3[C@@H](CN2S(=O)(=O)c2ccccc2)C(=O)C[C@@H](c2cccc(Cl)c2)N3S(=O)(=O)c2ccc(C)cc2)cc1` as the compound, how does the IC50 [21] read?
A: 39.8 µM (inactive)

Q: For `Cc1nnc(O)nc1N/N=C/c1ccco1`, which AC50 [6] is on record?
A: 119 µM (active)

Q: Which IC50 [9] does the source give for `COc1ccccc1Nc1ccc2c(O)cc(S(=O)(=O)O)cc2c1` here?
A: > 66.6 µM (inactive)

Q: What about the IC50 (Genome polyprotein) of the same compound?
A: 60.5 µM (active)

Q: What about the IC50 [22] of the same compound?
A: 90.4 µM (active)

Q: And the IC50 [11]?
A: 3.41 µM (active)

Q: For `CCNP(=S)(OC)O/C(C)=C/C(=O)OC(C)C` (configuration not stated) [PROPETAMPHOS], which AC50 [23] is on record?
A: 50.1 µM (inconclusive)
